Measurements: patent US7871793B2, “Antimicrobial carbohydrates and methods of using same” (Burnham Institute for Medical Research, priority 2004, dated 2011)

What was measured:
H. pylori infection = conditions: patients; cited from earlier work
H. pylori (ATCC43504) = test: Cultivation of H. pylori in the presence or absence of cholesterol; assay type: cell-based, Helicobacter pylori; conditions: Ham's F-12 with 0.005% cholesterol, 5 days
[1] = system: UDP-Glc:sterol glucosyltransferase; test: In vitro synthesis of CGL from UDP-Glc and cholesterol by sonicated H. pylori; assay type: biochemical, Helicobacter pylori; conditions: 5.0 mU in 100 μl reaction (50.0 mU/ml), 30° C., 3 hours
[2] = system: Helicobacter pylori (ATCC43504); test: Cell growth assay of H. pylori (microbroth dilution, OD 600 nm); assay type: cell-based; conditions: ATCC43504, Brucella broth, 96-well plate, 35° C., 15% CO2, 4 days, OD600
H. pylori = test: Cell motility assay (time-lapse confocal images); assay type: cell-based, Helicobacter pylori; conditions: 31.2 mU/ml or same protein concentration, 3 days, mean±SD

For `CC1(C)S[C@@H]2[C@H](NC(=O)[C@H](N)c3ccc(O)cc3)C(=O)N2[C@H]1C(=O)O` [amoxicillin], the eradication rate (H. pylori infection) is listed as “less than 20%”.

With `CC(C)CCC[C@@H](C)[C@H]1CC[C@H]2[C@@H]3CC=C4C[C@@H](O)CC[C@]4(C)[C@H]3CC[C@]12C` [cholesterol] the morphology (H. pylori (ATCC43504)) was “normal”, the motility (H. pylori (ATCC43504)) was “good” and the CFU/ml (H. pylori (ATCC43504); 35° C.) was 1 × 10^8 CFU/ml.

For `CC[C@H]1OC(=O)[C@H](C)[C@@H](O[C@H]2C[C@@](C)(OC)[C@@H](O)[C@H](C)O2)[C@H](C)[C@@H](O[C@@H]2O[C@H](C)C[C@H](N(C)C)[C@H]2O)[C@](C)(OC)C[C@@H](C)C(=O)[C@H](C)[C@@H](O)[C@]1(C)O` [clarithromycin], the eradication rate (H. pylori infection) is given as “about 40%”.

For `Cc1ncc([N+](=O)[O-])n1CCO` [metronidazole], the eradication rate (H. pylori infection) is given as “less than 10%”.

B1: CD43 free of a GlcNAcα residue: control soluble CD43 produced without α4GnT cDNA; side chain Galβ1→4GlcNAcβ1→6(Galβ1→3)GalNAcα→Ser/Thr (protein, UniProt P16150 20-253, looked up)
extracellular domain: STTAVQTPTSGEPLVSTSEPLSSKMYTTSITSDPKADSTGDQTSALPPSTSINEGSPLWTSIGASTGSPLPEPTTYQEVSIKMSSVPQETPHATSHPAVPITANSLGSHTVTGGTITTNSPETSSRTSGAPVTTAASSLETSRGTSGPPLTMATVSLETSKGTSGPPVTMATDSLETSTGTTGPPVTMTTGSLEPSSGASGPQVSSVKLSTMMSPTTSTNASTVPFRNPDENSR
modifications: extracellular domain core2 O-glycans lacking terminal GlcNAc
notes: control soluble CD43 produced without α4GnT cDNA; side chain Galβ1→4GlcNAcβ1→6(Galβ1→3)GalNAcα→Ser/Thr
With B1 the “peak of CGL at m/z 571.6 in products of sonicated H. pylori” value [1] was “a peak of CGL was detected”, the “growth of H. pylori” value [2] was “drastic growth” and the “mean velocity of seven H. pylori” value (H. pylori) was 21.1±2.6 μm/sec. The “mean velocity of seven H. pylori” value (H. pylori; listed as αGlcNAc (−)) was 21.2±2.6 μm/sec.
